Reference: patent US11484543B2, “Compositions and methods for diagnosing and treating diseases and disorders associated with mutant KCNJ5” (The Rockefeller University, priority 2017, dated 2022)
Changes are numbered by the printed parent chain. Where a name gives a salt, the structure may show the parent alone. Read-outs that look alike come from different tables or passages of the source.

How the values were obtained:
Type in all cases: cell-based
KCNJ5^G151R = target: T1, KCNJ5^G151R (Homo sapiens, UniProt P48544, G151R); experiment: cell-based; conditions: for G151R maximum inhibition / G151R minimum inhibition / IC50: 10-point dilution 20 to 0.0391 μM, N=3, four-parameter fit; for % effect (1) / % effect (2) / mean % effect / viability at 10 µM / activity against KCNJ5^G151R in the primary screen: 10 μM; for dose response on KCNJ5^G151R: tested at 1.1, 3.3 and 10 μM
T1 construct: expressed in transfected cells
T1 sequence (P48544 1-419 G151R): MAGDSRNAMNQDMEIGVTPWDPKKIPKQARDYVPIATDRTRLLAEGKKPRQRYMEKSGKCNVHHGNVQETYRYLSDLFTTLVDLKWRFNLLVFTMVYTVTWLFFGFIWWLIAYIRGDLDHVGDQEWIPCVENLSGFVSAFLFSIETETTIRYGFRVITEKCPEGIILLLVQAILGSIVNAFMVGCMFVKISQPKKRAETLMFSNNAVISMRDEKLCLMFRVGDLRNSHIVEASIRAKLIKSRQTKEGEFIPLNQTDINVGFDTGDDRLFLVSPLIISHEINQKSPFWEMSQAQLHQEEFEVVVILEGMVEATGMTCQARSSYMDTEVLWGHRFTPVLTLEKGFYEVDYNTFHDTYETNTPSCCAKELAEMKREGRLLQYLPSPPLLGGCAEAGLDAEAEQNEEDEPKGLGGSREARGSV
Method: (§1) WT or mutant human KCNJ5 cDNAs (Choi et al., 2011, Science 331:768-772) were subcloned into the pcDNA5/FRT/TO vector using BamHI and HindIII. Single copies of WT or mutant human KCNJ5 cDNAs expressed under the control of tetracycline-inducible promoter were introduced into HEK293 cells using the Flp-in T-Rex System (Invitrogen) according to the manufacturer's instructions. Cells were grown in selective media containing 10% Tet-system approved FBS (Clontech) until induction.
(§2) Assay plates were centrifuged and incubated overnight at 37° C. 20 nL was transferred from the compound source plate to the cell assay plate using an Aquarius (Tecan) with a 384-well pin tool (V&P Scientific). The final concentration of compound for screening was 10 μM and the final DMSO concentration was 0.1%. 1 μL of tetracycline (final concentration 1 μg/mL) was added to compound containing and negative control wells by Multidrop Combi to induce expression. 1 μL of media was added to positive control wells. Assay plates were centrifuged and incubated for 72 hours at 37° C., 5% CO2. CellTiter-Glo (Promega) was used to measure cell viability in the assay wells according to the manufacturer's instructions. 10 μL/well of CellTiter-Glo reagent was added to the assay plates using a MultiDrop Combi. The plates were shaken on a Thermomixer R (Eppendorf) at 1100 rpm for 1 minute and incubated in the dark for 10 minutes at room temperature. Luminescence was read on an Envision plate reader (PerkinElmer) with 0.3 second sampling time per well. Raw data (luminescence counts per second) was normalized to percent effect by the formula 100−(((sample−negative control mean)/(positive control mean−negative control mean))*100).
(§3) Data was analyzed using the programs Excel (Microsoft) and Prism (GraphPad). Errors are SD unless otherwise indicated in the legend. Dose-response curves were fitted with a four-parameter logistic equation: F(x)=D+(A−D)/(1+(x/C)^B), with A=minimum inhibition B=Hill's slope C=inflection point D=maximum inhibition Synthesis of Macrolide Derivatives
(§4) Cellular ATP levels were measured as a proxy for cell viability, using a commercially available luciferase assay (Crouch et al., 1993, Proc. Natl. Acad. Sci. U.S.A. 109:2533-2538).
(§5) Conditions were designed to maximize reproducibility and the signal-to-background ratios (S/B) (Zhang et al., 1999, J. Biomol. Screen 4:67-73) comparing ATP level in uninduced and induced cells. Screening was performed in 384-well plates; compounds were added 24 hours after plating, and channel expression was induced immediately after compound addition. ATP levels were measured 72 hours after induction.
Levels of ATP in uninduced and induced cells without added test compound defined 100% and 0% effect, respectively, and served as a proxy for lethality.

KCNJ5^L168R = target: T2, KCNJ5^L168R (Homo sapiens, UniProt P48544, L168R); experiment: Cell viability assay (ATP, CellTiter-Glo): rescue of KCNJ5^L168R-induced lethality in inducible HEK293 cells; conditions: for dose response on KCNJ5^L168R: tested at 1.1, 3.3 and 10 μM
T2 construct: expressed in transfected cells
T2 sequence (P48544 1-419 L168R): T1 sequence (P48544 1-419 G151R) with R151G, L168R
Method: as §1, §2, §3, §4, §5

KCNJ5^WT = target: T3, KCNJ5^WT (Homo sapiens, UniProt P48544); experiment: Membrane potential assay (FLIPR dye) in inducible KCNJ5^WT HEK293 cells; conditions: 10-point dilution 20 to 0.0391 μM, N=3, four-parameter fit
T3 construct: expressed in transfected cells
T3 sequence (P48544 1-419): T1 sequence (P48544 1-419 G151R) with R151G
Method: as §1, with “Single” for “WT or mutant human KCNJ5 cDNAs (Choi et al., 2011, Science 331:768-772) were subcloned into the pcDNA5/FRT/TO vector using BamHI and HindIII. Single”
20 μL of WT cells were plated into sterile black with clear bottom tissue culture-treated 384-well plates (Corning) at a density of 10000 cells/well using a Multidrop Combi. Assay plates were centrifuged at 500 rpm for 10 seconds and incubated overnight at 37° C. in a humidified 5% CO2 incubator. After the overnight incubation, 1 μL of tetracycline (final conc. 1 μg/mL) was added to all wells by Multidrop Combi to induce KCNJ5. Assay plates were centrifuged at 500 rpm for 10 seconds and incubated overnight at 37° C. in a humidified 5% CO2 incubator. The next day, 10 μL of medium was removed from each well using a PlateMate Plus (Thermo Scientific). 10 μL of Blue Formula FLIPR membrane potential dye (Molecular Devices) was added to cells using a Multichannel pipettor. Assay plates were incubated for 30 minutes. at 37° C. After incubation, 20 nL was transferred twice from the compound source plate to the cell assay plate using an Aquarius with a 384-well pin tool for a total transfer volume of 40 nL and a final DMSO concentration of 0.2%. 1 μL of 20 mM BaCl2 was added to positive control wells using a Multichannel pipettor. The assay plate was incubated 20 minutes at room temperature in the dark.
Changes in membrane potential were detected using a well-established fluorescence-based measure of membrane potential (FIG. 4).

[1] = 10-point dilution 20 to 0.0391 μM, N=3, four-parameter fit
[2] = ATP level 72 h after induction, uninduced = 100%, induced = 0% effect, first of the two runs (primary screen / hit pick)
[3] = ATP level 72 h after induction, uninduced = 100%, induced = 0% effect, second of the two runs (primary screen / hit pick, confirmatory testing)
[4] = mean of primary screen and hit pick
[5] = HEK293, 72 h, mean of primary screen and hit pick, read-out: mean % effect
[6] = HEK293, ATP level 72 h after induction, uninduced = 100%, induced = 0% effect, first of the two runs (primary screen / hit pick), read-out: % effect (1)
[7] = HEK293, ATP level 72 h after induction, uninduced = 100%, induced = 0% effect, second of the two runs (primary screen / hit pick, confirmatory testing), read-out: % effect (2)

SMILES: CC[C@@H](O)[C@@](C)(O)[C@@H]1OC(=O)[C@H](C)[C@@H](O[C@H]2C[C@@](C)(OC)[C@@H](O)[C@H](C)O2)[C@H](C)[C@@H](O[C@@H]2O[C@H](C)C[C@H](N(C)C)[C@H]2O)[C@@]2(C)CC(C)=C(O2)[C@@H]1C [Pseudo Erythromycin A Enol Ether, pseudo erythromycin A enol ether]
- G151R maximum inhibition (KCNJ5^G151R): 11.13%
- G151R minimum inhibition (KCNJ5^G151R): 1.58%
- IC50 (KCNJ5^G151R): 0.65 µM
- L168R IC50 (KCNJ5^L168R; [1]): No Fit
- WT IC50 (KCNJ5^WT): No fit

SMILES: CC[C@H]1OC(=O)[C@H](C)[C@@H](O[C@H]2C[C@@](C)(O)[C@@H](O)[C@H](C)O2)[C@H](C)[C@@H](O[C@@H]2O[C@H](C)C[C@H](N(C)C)[C@H]2O)[C@](C)(O)C[C@@H](C)C(=O)[C@H](C)[C@@H](O)[C@]1(C)O [Erythromycin C, erythromycin C]
- G151R maximum inhibition (KCNJ5^G151R): 75.00%
- G151R minimum inhibition (KCNJ5^G151R): 6.72%
- IC50 (KCNJ5^G151R): 9.19 µM
- IC50 (KCNJ5^L168R; [1]): 12.2 µM
- L168R maximum inhibition (KCNJ5^L168R; [1]): 18.43%
- L168R minimum inhibition (KCNJ5^L168R; [1]): 1.41%
- WT IC50 (KCNJ5^WT): No fit

SMILES: CC[C@H]1OC(=O)[C@H](C)[C@@H](O[C@H]2C[C@@](C)(OC)[C@@H](O)[C@H](C)O2)[C@H](C)[C@@H](O[C@@H]2O[C@H](C)C[C@H](NC)[C@H]2O)[C@](C)(O)C[C@@H](C)/C(=N\OCOCCOC)[C@H](C)[C@@H](O)[C@]1(C)O [N-demethyl Roxithromycin, N-demethyl roxithromycin]
- G151R maximum inhibition (KCNJ5^G151R): 96.20%
- G151R minimum inhibition (KCNJ5^G151R): 4.50%
- IC50 (KCNJ5^G151R): 0.82 µM
- IC50 (KCNJ5^L168R; [1]): 1.18 µM
- L168R maximum inhibition (KCNJ5^L168R; [1]): 76.95%
- L168R minimum inhibition (KCNJ5^L168R; [1]): 1.12%
- dose response on KCNJ5^L168R (KCNJ5^L168R): showed a dose response
- WT IC50 (KCNJ5^WT): No fit

SMILES: CC[C@H]1OC(=O)[C@H](C)[C@@H](O[C@H]2C[C@@](C)(OC)[C@@H](O)[C@H](C)O2)[C@H](C)[C@@H](O[C@@H]2O[C@H](C)C[C@H](N(C)C)[C@H]2O)[C@](C)(O)C[C@@H](C)C(=O)[C@H](C)[C@@H](O)[C@H]1C [Erythromycin B, erythromycin B]
- G151R maximum inhibition (KCNJ5^G151R): 84.36%
- G151R minimum inhibition (KCNJ5^G151R): 7.15%
- IC50 (KCNJ5^G151R): 1.23 µM
- IC50 (KCNJ5^L168R; [1]): 4.73 µM
- L168R maximum inhibition (KCNJ5^L168R; [1]): 80.00%
- L168R minimum inhibition (KCNJ5^L168R; [1]): 1.62%
- WT IC50 (KCNJ5^WT): No fit

SMILES: C1CCC(N=C(NC23CC4CC(CC(C4)C2)C3)N2CCOCC2)CC1.Cl [YU224116, U-37883A-HCl]
- % effect (1) (KCNJ5^G151R; [2]): 49.9%
- % effect (2) (KCNJ5^G151R; [3]): 65.8%
- mean % effect (KCNJ5^G151R; [4]): 57.9%
- dose response on KCNJ5^G151R (KCNJ5^G151R): potent inhibitors
- dose response on KCNJ5^L168R (KCNJ5^L168R): either high IC50 values or low maximum inhibition

SMILES: C[C@]12CC[C@@H]3c4ccc(O)cc4C[C@@H](CCCCCCCCC[S+]([O-])CCCC(F)(F)C(F)(F)F)[C@H]3[C@@H]1CC[C@@H]2O (stereo partly drawn) [YU221408, Fulvestrant]
- viability at 10 µM (KCNJ5^G151R; [5]): 52.3%
- viability at 10 µM (KCNJ5^G151R; [6]): 65%
- viability at 10 µM (KCNJ5^G151R; [7]): 39.6%

SMILES: CC(COc1ccccc1)N(CCCl)Cc1ccccc1 (stereo not drawn) [YU225090, Phenoxybenzamine-HCl]
- viability at 10 µM (KCNJ5^G151R; [5]): 59.9%
- viability at 10 µM (KCNJ5^G151R; [6]): 67.8%
- viability at 10 µM (KCNJ5^G151R; [7]): 52.1%

SMILES: CC[C@@H]1C=CC=CC[C@H](C)[C@@H](O)[C@@H](C)C(=O)[C@H](C)[C@@H](O)[C@H](C)C(=O)[C@H](C)[C@@H](O)[C@H](C)C=CC(=O)O[C@H]2[C@@H](C)[C@@H](CC1)O[C@@]1(CC[C@@H](C)[C@@H](C[C@H](C)O)O1)[C@@H]2C [oligomycin C]
- activity against KCNJ5^G151R in the primary screen (KCNJ5^G151R): little or no activity

SMILES: COc1ccc(NC(=O)c2c(C)oc3ccc(O)c(CN4CCCCCC4)c23)cc1Cl [YU164421]
- % effect (1) (KCNJ5^G151R; [2]): 35.1%
- % effect (2) (KCNJ5^G151R; [3]): 51.3%
- mean % effect (KCNJ5^G151R; [4]): 43.2%

SMILES: CO[C@H]1C[C@H](O[C@H]2[C@H](C)[C@@H](O[C@@H]3O[C@H](C)C[C@H](N(C)C)[C@H]3O)[C@@H](C)C[C@@]3(CO3)C(=O)[C@H](C)[C@@H](O)[C@@H](C)[C@@H](C)OC(=O)[C@@H]2C)O[C@@H](C)[C@@H]1O [oleandomycin]
- activity against KCNJ5^G151R in the primary screen (KCNJ5^G151R): little or no activity

SMILES: Cc1oc2ccc(O)c(CN3CCC(C)CC3)c2c1C(=O)Nc1ccccc1 [YU164362]
- % effect (1) (KCNJ5^G151R; [2]): 62.7%
- % effect (2) (KCNJ5^G151R; [3]): 39.1%
- mean % effect (KCNJ5^G151R; [4]): 50.9%

SMILES: CN(C)C(=O)C(CCN1CCC(O)(c2ccc(Cl)cc2)CC1)(c1ccccc1)c1ccccc1 [YU224113, Loperamide-HCl]
- viability at 10 µM (KCNJ5^G151R; [5]): 41.4%
- viability at 10 µM (KCNJ5^G151R; [6]): 35.2%
- viability at 10 µM (KCNJ5^G151R; [7]): 47.6%

SMILES: COc1ccc(NC(=O)c2c(C)oc3ccc(O)c(CN4CCCC(C)C4)c23)cc1 (stereo not drawn) [YU164351]
- % effect (1) (KCNJ5^G151R; [2]): 77.7%
- % effect (2) (KCNJ5^G151R; [3]): 44.0%
- mean % effect (KCNJ5^G151R; [4]): 60.8%

SMILES: CCN(CC)CCN1c2ccccc2Sc2ccc3ccccc3c21 [NSC18883]
- dose response on KCNJ5^G151R (KCNJ5^G151R): potent inhibitors
- dose response on KCNJ5^L168R (KCNJ5^L168R): either high IC50 values or low maximum inhibition
